molecular target: T1, c-Abl kinase domain (Mus musculus, UniProt P00520); experiment: pTyr-Var library bacterial peptide display kinase screen (enrichment scores); assay type: biochemical; conditions: fig5-data2, sheet "Abl"; Screen for the variant/reference peptide pair, pTyr-Var library;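 also: log2 fold change in enrichment of variant over reference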
T1 sequence (P00520 242-493 limits assumed): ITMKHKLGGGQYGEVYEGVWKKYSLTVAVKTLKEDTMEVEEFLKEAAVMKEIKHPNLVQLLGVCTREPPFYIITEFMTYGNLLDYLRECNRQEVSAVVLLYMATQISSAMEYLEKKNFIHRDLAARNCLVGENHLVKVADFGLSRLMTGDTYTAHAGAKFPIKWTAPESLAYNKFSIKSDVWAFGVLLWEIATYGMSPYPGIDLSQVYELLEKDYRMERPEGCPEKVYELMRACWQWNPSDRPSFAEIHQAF

Row | Screen | Sequence
1 | -0.8712 | IPTPAYQSLPA [PDCD6IP_Y727_S730L]
2 | 1.602 | CEAVEYLESKQ [BTK_Y511_M509V]
3 | 0.412 | LEVETYRRLLD [KRT12_Y429_I426V]
4 | 2.918 | KRGIDYILWHM [FRMD1_Y225_R228W]
5 | 0.9615 | GVMLLYFGRFN [ADGRD1_Y85_T82M_YF]
6 | -1.908 | MNLLGYRQVRS [CHST4_Y359_H361Q]
7 | -1.302 | FIATQYSLCPR [LBR_Y166_R169C_YF]
8 | 0.4533 | RVFIKYLPEWT [PSEN1_Y240_L235R]
9 | -0.368 | RFGRKYKKVRF [F8_Y442_I438F]
10 | 1.832 | KSMFVYCTPNK [ATP2A2_Y497_S495F]
11 | 1.025 | SGADSYEMEED [EGFR_Y316_C311S]
12 | 1.009 | FAANFYKLLGN [ROR2_Y646_D644N_YF]
13 | -0.1317 | CGTPDYIDPEI [PRKCG_Y521_A523D]
14 | 0.6024 | LVQAEYWHDRI [PPT1_Y185_P189R]
15 | -1.289 | EAIAKYDLKAT [GRB2_Y7_F9L]
16 | 0.402 | DRLASYLDKLR [KRT12_Y139_V143L]
17 | 2.603 | WQQQSYLDSEI [CTNNB1_Y30_G34E]
18 | 1.764 | IMVFVYCRVFQ [ADRB2_Y219_S220C]
19 | -1.303 | SLIDGYFRLTE [JAK2_Y372_A377E_YF]
20 | -0.2428 | DKATEYSQFMR [MAX_Y70_I71S_YF]
21 | 0.5821 | TEGNGYISFNE [LCP1_Y28_D24E]
22 | 0.8312 | FQRITYHNWRH [PDE6B_Y556_R552Q_YF]
23 | 0.7729 | KKLAEYGPQGK [CLCA1_Y147_R152K]
24 | 1.089 | HVSISYDIPLT [GAB1_Y307_P311L]
25 | 1.344 | RQQEVYLLFKQ [RARRES1_Y159_D158V_YF]

same assay, conditions: sheet "Abl"; effect of variant peptide relative to its reference peptide in pTyr-Var library screen (enrichment)

Row | Screen | Sequence
26 | 0.5221 | AVDDKYSRREE [SART1_Y685_I681V]
27 | 1.898 | RLGDLYKEEMR [VIM_Y150_E151K]
28 | -3.237 | ERRLIYASDPK [VPS13D_Y864_T865A]

molecular target: c-Src kinase domain (Homo sapiens, UniProt P12931); experiment: as above; assay type: biochemical; conditions: pTyr-Var library screen with c-Src; sheet "Src substrates": annotated Src substrate sites, 11-residue peptide SITE_+/-5_AA; mean;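 as to screen: log2 fold change in enrichment of variant over reference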

Row | Sequence | Enrichment score (mean)
29 | EALDFYGEVRT | 1.015

same assay, conditions: sheet "Src"; effect of the variant peptide relative to its reference peptide in the pTyr-Var library screen

Row | Sequence | Screen
30 | RKPDIYGRLAS [MCM4_Y459_E460G] | 0.1835
31 | FQKNIYSEEPR [LMNA_Y211_L215P] | -0.2654
32 | VITTLYIGFLG [KCNQ1_Y267_L262V] | -0.844
33 | CEETFYTMKMN [MASP2_Y401_V405M] | 0.9168
34 | LITILYIGFLG [KCNQ1_Y267_T265I] | -1.468
35 | PFAEPYADFGG [APBA1_Y187_S184A_YF] | -0.451
36 | FKEIVYAVSSD [DCX_Y70_G67E] | 2.95
37 | RMDGKYACSFT [FLNB_Y704_T703K_YF] | -2.226
38 | DCAAIYGNEPD [AKR1A1_Y50_E55D] | 0.2268
39 | KVALVYGQMNQ [ATP5F1B_Y269_E274Q] | 0.6915
40 | IPGGIYNADLN [CST4_Y35_D36N] | -0.256

same assay, conditions: sheet "Src"; variant peptide versus its reference peptide in the pTyr-Var library screen

Row | Sequence | Screen
41 | PLDGEYFTLRI [TP53_Y327_Q331R] | -0.2935
42 | LRFDSYWSFCN [SLC20A2_Y433_S434W_YF] | 2.108
43 | LITLVYGCSRQ [TMPRSS6_Y290_S288L] | -0.7056
44 | PLQNTYNFNVL [SLC4A1_Y553_K551N_YF] | 2.669
45 | RGDVIYKGFED [NFU1_Y194_G189R] | -0.4435
46 | HDRNTYEKFLE [TF_Y666_G671E_YF] | -1.841
47 | SVTCPYSPALN [TP53_Y126_T125P] | 1.73
48 | SDVDLYQVRIA [PSMD9_Y70_T74I] | 0.1663
49 | DFCDLYGGEKF [PTPN11_Y66_Y63C_YF] | -0.008516
50 | SILAVYSKDIF [PANK2_Y400_N404I_YF] | -0.2771
51 | IDSTPYGQWFE [RPS8_Y109_R110G_YF] | 3.305
52 | MVSLFYGTAIF [OR10C1_Y251_L255I] | -0.3478
53 | QGCGIYKDFFR [PLA2G2D_Y82_S80G_YF] | -0.1018
54 | PLDGEYFTLHI [TP53_Y327_Q331H] | -0.3825

Reference: PMC10065799, “High-throughput profiling of sequence recognition by tyrosine kinases and SH2 domains using bacterial peptide display” (eLife, 2023)
